Where no end group is shown, it is not given here.

These results are taken from paper PMC6145916, “Interaction of mitochondrial fission factor with dynamin related protein 1 governs physiological mitochondrial function in vivo” (Scientific Reports, 2018).

Experiment [1] has as its system primary cortical neurons. The experiment can be described thus: Mitochondrial membrane potential (TMRM), primary cortical neurons. The class given is cell-based, rat. The settings on record: overnight treatment; n = 3, with 3 replicates. As for the experimental part: Bottom, quantification of the form factor (degree of branching) and aspect ratio (major/minor axis length). At least 10,000 mitochondrial fragments were analyzed for each condition. Mitochondrial reactive oxygen species production (MitoSox Red) (b) and membrane potential (TMRM) (c) after overnight treatment with indicated concentrations of peptide (n = 3, with 3 replicates). […] Overlay of live microscopy imaging at time 0 (green) and 150 (red) seconds. […] An estimation of the % mobile mitochondria from the Pearson coefficient of each set of images. Data are mean ± s.e.
Following treatment, cells were washed with treatment media.
The Cy5 filter was used to autofocus on the mitochondria plane. Nuclei were imaged with a DAPI filter and the mitoROS (MitoSox) or membrane potential (TMRM) image was acquired with a TRITC filter. […] MitoROS was calculated as the average MitoSox signal per cell. The mitochondrial membrane potential was calculated as the average TMRM signal in the mitochondrial mask.
Mitochondrial reactive oxygen species determination […]
and 1% penicillin-streptomycin solution (Corning, NY, USA). Primary cortical neurons were treated with increasing concentrations of peptides in NbActiv1 media. HD Patient- and adult- […]
and without phenol red. […] After incubation
HEPES, and without phenol red. […]
calculated as the average MitoSox signal per cell. […]

The subject of experiment [2] is striatal neurons. The experiment can be described thus: Transmission electron microscopy of striatum. It is filed as in vivo, mouse. The settings on record: 3 mg/Kg/day, 8 weeks, WT mice; 806 (TAT) and 1109 (P259) mitochondria from ten images per condition. The text has this: (a) Quantification of mitochondrial Drp1 content relative to ALDH2 (a mitochondrial matrix enzyme) in the mitochondrial fraction isolated from total brain lysate of wild-type mice (Western blot shown in Fig. S3B) (n = 4 mice). (b) ATP content in brain tissue of wild-type mice (n = 4 mice, 2 replicates). (c) Representative transmission electron microscopy images of the striatum from wild-type mice. […] The first principal component represents 42% of the variation. (f) Local linear embedding dimensionality reduction and visualization of all behaviors collected weekly from TAT- (black) or P259- (purple) treated WT and TAT- (white) treated R6/2 mice over the course of 8 weeks. […] All behavior and survival tests were conducted by an experienced observer who was blinded to the treatment groups. Data are mean ± s.e.
Five-week old R6/2 HD mice and their wild-type littermates (a total of 60 mice) were implanted subcutaneously with a 28-d Alzet osmotic pump with either P259-TAT or TAT control peptide (15 mice per group) to be delivered continuously at a rate of 3 mg/Kg/day, as previously described. All mice were implanted twice for a total of an 8-week treatment. 20 of the WT mice were implanted 3 times for a total of a 12-week treatment at 3 mg/Kg/day. […]
To quantify mitochondrial motility, the images at time 0 and 150 seconds w ere overlaid. […]

As to “YGRKKRRQRRRGSGIIQLPEIVVV-NH2 (C-terminus assumed) [P259]”, the mitochondrial membrane potential result in experiment [1] was “decreased membrane potential”. In experiment [2], the “mitochondrial size and shape in striatal neurons (electron microscopy)” value was “larger and more elongated mitochondria in striatal neurons”.
